Experiment [1] addresses T1, MKNK1 (Homo sapiens, UniProt Q9BUB5, T385D).
T1 construct: GST (N); purchased Carna Biosciences 02-145; host or cells: insect cells (baculovirus expression system)
Nature of the experiment: MKNK1 kinase high ATP assay (TR-FRET). The following applies: ATP final conc. 2 mM; 15 min pre-incubation; reaction time 30 min at 22°C. The format is biochemical. As for the experimental part:
MKNK1-inhibitory activity at high ATP of compounds of the present invention after their preincubation with MKNK1 was quantified employing the TR-FRET-based MKNK1 high ATP assay as described in the following paragraphs.
As substrate for the kinase reaction the biotinylated peptide biotin-Ahx-[…] (C-terminus in amide form) was used, which can be purchased e.g. from the company Biosyntan (Berlin-Buch, Germany).
For the assay 50 nL of a 100fold concentrated solution of the test compound in DMSO was pipetted into a black low volume 384well microtiter plate (Greiner Bio-One, Frickenhausen, Germany), 2 µL of a solution of MKNK1 in aqueous assay buffer [50 mM HEPES pH 7.5, 5 mM magnesium chloride, 1.0 mM dithiothreitol, 0.005% (v/v) Nonidet-P40 (Sigma)] was added and the mixture was incubated for 15 min at 22°C to allow pre-binding of the test compounds to the enzyme before the start of the kinase reaction. Then the kinase reaction was started by the addition of 3 µL of a solution of adenosine-tri-phosphate (ATP, 3.3 mM => final conc. in the 5 µL assay volume is 2 mM) and substrate (0.1 µM => final conc. in the 5 µL assay volume is 0.06 µM) in assay buffer and the resulting mixture was incubated for a reaction time of 30 min at 22°C. The concentration of MKNK1 was adjusted depending of the activity of the enzyme lot and was chosen appropriate to have the assay in the linear range, typical concentrations were in the range of 0.003 µg/mL. The reaction was stopped by the addition of 5 µL of a solution of TR-FRET detection reagents (5 nM streptavidine-XL665 [Cisbio Bioassays, Codolet, France] and 1 nM anti-ribosomal protein S6 (pSer236)-antibody from Invitrogen [# 44921G] and 1 nM LANCE EU-W1024 labeled ProteinG [Perkin-Elmer, product no. AD0071]) in an aqueous EDTA-solution (100 mM EDTA, 0.1 % (w/v) bovine serum albumin in 50 mM HEPES pH 7.5).
(§1) The resulting mixture was incubated for 1 h at 22°C to allow the formation of complex between the phosphorylated biotinylated peptide and the detection reagents. Subsequently the amount of phosphorylated substrate was evaluated by measurement of the resonance energy transfer from the Eu-chelate to the streptavidine-XL. Therefore, the fluorescence emissions at 620 nm and 665 nm after excitation at 350 nm were measured in a TR-FRET reader, e.g. a Rubystar (BMG Labtechnologies, Offenburg, Germany) or a Viewlux (Perkin-Elmer). The ratio of the emissions at 665 nm and at […] was taken as the measure for the amount of phosphorylated substrate. The data were normalised (enzyme reaction without inhibitor = 0 % inhibition, all other assay components but no enzyme = 100 % inhibition).
On the technique in general: TR-FRET usually uses a lanthanide donor and a delayed reading to cut background.

Experiment [2] deals with T1, MKNK1. Nature of the experiment: MKNK1 kinase assay (TR-FRET). The class given is biochemical. The settings on record: ATP final conc. 10 µM; 15 min pre-incubation; reaction time 45 min at 22°C. On the procedure:
MKNK1-inhibitory activity of compounds of the present invention was quantified employing the MKNK1 TR-FRET assay as described in the following paragraphs.
As substrate for the kinase reaction the biotinylated peptide biotin-Ahx-[…] (C-terminus in amide form) was used which can be purchased e.g. form the company Biosyntan (Berlin-Buch, Germany).
For the assay 50 nL of a 100fold concentrated solution of the test compound in DMSO was pipetted into a black low volume 384well microtiter plate (Greiner Bio-One, Frickenhausen, Germany), 2 µL of a solution of MKNK1 in aqueous assay buffer [50 mM HEPES pH 7.5, 5 mM magnesium chloride, 1.0 mM dithiothreitol, 0.005% (v/v) Nonidet-P40 (Sigma)] was added and the mixture was incubated for 15 min at 22°C to allow pre-binding of the test compounds to the enzyme before the start of the kinase reaction. Then the kinase reaction was started by the addition of 3 µL of a solution of adenosine-tri-phosphate (ATP, 16.7 µM => final conc. in the 5 µL assay volume is 10 µM) and substrate (0.1 µM => final conc. in the 5 µL assay volume is 0.06 µM) in assay buffer and the resulting mixture was incubated for a reaction time of 45 min at 22°C.
as §1, with “inhibition). […] Table 1: MKNK1 IC50s” for “inhibition).”

From patent EP2758401B1 (Bayer Intellectual Property GmbH, priority 2011, dated 2013) come the findings set out here.

Structures can show the parent of a compound that is named as a salt.

T1 sequence (Q9BUB5 1-424 isoform Q9BUB5-2 T344D): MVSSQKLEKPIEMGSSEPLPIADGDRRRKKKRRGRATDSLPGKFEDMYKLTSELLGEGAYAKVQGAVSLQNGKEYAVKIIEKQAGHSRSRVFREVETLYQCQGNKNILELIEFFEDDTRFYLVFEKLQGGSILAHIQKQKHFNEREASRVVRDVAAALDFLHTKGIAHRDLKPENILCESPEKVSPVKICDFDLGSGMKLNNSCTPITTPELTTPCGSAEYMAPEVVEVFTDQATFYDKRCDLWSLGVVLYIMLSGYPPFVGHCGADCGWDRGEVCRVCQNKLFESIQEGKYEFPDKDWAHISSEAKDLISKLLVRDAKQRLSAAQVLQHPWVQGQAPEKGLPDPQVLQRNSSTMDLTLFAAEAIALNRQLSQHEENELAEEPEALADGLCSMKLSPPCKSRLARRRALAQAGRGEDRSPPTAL

`NCCCCOc1ccc2ncc(-c3cc4ccccc4o3)n2n1` [Example 8, 4-{[3-(1-Benzofuran-2-yl)imidazo[1,2-b]pyridazin-6-yl]oxy}butan-1-amine]: the IC50 was 17 nM in experiment [1] and 7 nM in experiment [2].

On to `COc1ccc2oc(-c3cnc4ccc(OCCCN)nn34)cc2c1` [Example 9, 3-{[3-(5-Methoxy-1-benzofuran-2-yl)imidazo[1,2-b]pyridazin-6-yl]oxy}propan-1-amine], for which the IC50 in experiment [1] turned out to be 22 nM; in experiment [2], 7 nM.

Regarding `NCCCOc1ccc2ncc(-c3cc4ccccc4o3)n2n1` [Example 11, 3-{[3-(1-Benzofuran-2-yl)imidazo[1,2-b]pyridazin-6-yl]oxy}propan-1-amine], the figures for the IC50 in experiment [1] and in experiment [2] were 24 nM and 8 nM, respectively.

For `NCCOc1ccc2ncc(-c3cc4ccccc4o3)n2n1` [Example 12, 2-{[3-(1-Benzofuran-2-yl)imidazo[1,2-b]pyridazin-6-yl]oxy}ethanamine], the IC50 in experiment [1] worked out at 27 nM; in experiment [2] it was 10 nM.

Take `CC(C)(N)CCOc1ccc2ncc(-c3cc4ccccc4o3)n2n1` [Example 14, 4-{[3-(1-Benzofuran-2-yl)imidazo[1,2-b]pyridazin-6-yl]oxy}-2-methylbutan-2-amine]: the IC50 was determined as 39 nM in experiment [1] and 20 nM in experiment [2].

For the compound `C[C@H](CN)Oc1ccc2ncc(-c3cc4cc(Cl)ccc4o3)n2n1` [Example 15, (2R)-2-{[3-(5-Chloro-1-benzofuran-2-yl)imidazo[1,2-b]pyridazin-6-yl]oxy}-propan-1-amine], the results for the IC50 in experiment [1] and in experiment [2] were 197 nM and 36 nM, respectively.

Consider `NC[C@H](Oc1ccc2ncc(-c3cc4ccccc4o3)n2n1)c1ccccc1` [Example 16, (2R)-2-{[3-(1-Benzofuran-2-yl)imidazo[1,2-b]pyridazin-6-yl]oxy}-2-phenylethan-amine], for which the results for the IC50 in experiment [1] and in experiment [2] were 49 nM and 26 nM, respectively.

Take `N[C@H](COc1ccc2ncc(-c3cc4ccccc4o3)n2n1)c1ccccc1` [Example 17, (1S)-2-{[3-(1-Benzofuran-2-yl)imidazo[1,2-b]pyridazin-6-yl]oxy}-1-phenylethan-amine]: the IC50 in experiment [1] came out at 10 nM; in experiment [2], 6 nM.

Regarding `N[C@@H](COc1ccc2ncc(-c3cc4ccccc4o3)n2n1)c1ccccc1` [Example 18, (1R)-2-{[3-(1-Benzofuran-2-yl)imidazo[1,2-b]pyridazin-6-yl]oxy}-1-phenyl-ethanamine], the figures for the IC50 in experiment [1] and in experiment [2] were 33 nM and 22 nM, respectively.

With `N[C@H](COc1ccc2ncc(-c3cc4cc(Cl)ccc4o3)n2n1)c1ccccc1` [Example 19, (1S)-2-{[3-(5-Chloro-1-benzofuran-2-yl)imidazo[1,2-b]pyridazin-6-yl]oxy}-1-phenylethanamine], the IC50 in experiment [1] turned out to be 111 nM; in experiment [2] it was 25 nM.

Turning to `NC[C@H]1C[C@H](Oc2ccc3ncc(-c4cc5ccccc5o4)n3n2)C1` [Example 20, 1-(trans-3-{[3-(1-Benzofuran-2-yl)imidazo[1,2-b]pyridazin-6-yl]oxy}cyclobutyl)-methanamine], the values for the IC50 in experiment [1] and in experiment [2] were 6 nM and 4 nM, respectively.

Take `N[C@H]1C[C@H](COc2ccc3ncc(-c4cc5ccccc5o4)n3n2)C1` [Example 22, trans-3-({[3-(1-Benzofuran-2-yl)imidazo[1,2-b]pyridazin-6-yl]oxy}methyl)cyclobutanamine]: the IC50 worked out at 17 nM in experiment [1] and 6 nM in experiment [2].

With `N[C@H]1CCC[C@@H]1Oc1ccc2ncc(-c3cc4ccccc4o3)n2n1` [Example 24, (1S,2S)-2-{[3-(1-Benzofuran-2-yl)imidazo[1,2-b]pyridazin-6-yl]oxy}cyclopentan-amine], the IC50 in experiment [1] is 19 nM; in experiment [2] it was 10 nM.

On to `N[C@H]1CCC[C@H]1Oc1ccc2ncc(-c3cc4ccccc4o3)n2n1` [Example 25, (1S,2R)-2-{[3-(1-Benzofuran-2-yl)imidazo[1,2-b]pyridazin-6-yl]oxy}cyclopentan-amine salt with formic acid], for which the IC50 in experiment [1] came to 22 nM; in experiment [2], 7 nM.

For the compound `NCC(Cc1ccccc1)Oc1ccc2ncc(-c3cc4ccccc4o3)n2n1` (stereo not shown) [Example 26, 2-{[3-(1-Benzofuran-2-yl)imidazo[1,2-b]pyridazin-6-yl]oxy}-3-phenylpropan-1-amine salt with formic acid], the values for the IC50 in experiment [1] and in experiment [2] were 25 nM and 15 nM, respectively.

On to `NCC(Oc1ccc2ncc(-c3cc4ccccc4o3)n2n1)C1CC1` (stereo not shown) [Example 30, 2-{[3-(1-Benzofuran-2-yl)imidazo[1,2-b]pyridazin-6-yl]oxy}-2-cyclopropylethan-amine], for which the values for the IC50 in experiment [1] and in experiment [2] were 75 nM and 41 nM, respectively.

As to `NCC(CN)Oc1ccc2ncc(-c3cc4ccccc4o3)n2n1` [Example 34, 2-{[3-(1-Benzofuran-2-yl)imidazo[1,2-b]pyridazin-6-yl]oxy}propane-1,3-diamine], the IC50 in experiment [1] came out at 92 nM; in experiment [2] it was 39 nM.

In the case of `NCC(Oc1ccc2ncc(-c3cc4ccccc4o3)n2n1)C1CCOC1` (stereo not shown) [Example 35, 2-{[3-(1-Benzofuran-2-yl)imidazo[1,2-b]pyridazin-6-yl]oxy}-2-(tetrahydrofuran-3-yl)ethanamine], the IC50 in experiment [1] came out at 52 nM; in experiment [2], 32 nM.

On to `N[C@H]1C[C@H](Oc2ccc3ncc(-c4cc5c(F)cccc5o4)n3n2)C1` [Example 36, trans-3-{[3-(4-Fluoro-1-benzofuran-2-yl)imidazo[1,2-b]pyridazin-6-yl]oxy}-cyclobutanamine], for which the IC50 in experiment [1] is 2 nM; in experiment [2], 1 nM.

As for `N[C@H]1C[C@H](Oc2ccc3ncc(-c4cc5cc(Cl)ccc5o4)n3n2)C1` [Example 37, trans-3-{[3-(5-Chloro-1-benzofuran-2-yl)imidazo[1,2-b]pyridazin-6-yl]oxy}-cyclobutanamine], the IC50 in experiment [1] was found to be 5 nM; in experiment [2], 4 nM.

As for `COc1ccc2oc(-c3cnc4ccc(O[C@H]5C[C@H](N)C5)nn34)cc2c1` [Example 38, trans-3-{[3-(5-Methoxy-1-benzofuran-2-yl)imidazo[1,2-b]pyridazin-6-yl]oxy}-cyclobutanamine], the IC50 in experiment [1] was found to be 6 nM; in experiment [2], 3 nM.

With `N[C@H]1C[C@H](Oc2ccc3ncc(-c4cc5cc(F)ccc5o4)n3n2)C1` [Example 39, trans-3-{[3-(5-Fluoro-1-benzofuran-2-yl)imidazo[1,2-b]pyridazin-6-yl]oxy}-cyclobutanamine], the IC50 in experiment [1] came out at 6 nM; in experiment [2], 3 nM.

With `CC(CN)COc1ccc2ncc(-c3cc4ccccc4o3)n2n1` (stereo not shown) [Example 40, 3-{[3-(1-Benzofuran-2-yl)imidazo[1,2-b]pyridazin-6-yl]oxy}-2-methylpropan-1-amine], the IC50 in experiment [1] stood at 18 nM; in experiment [2] it was 9 nM.

What is called IC50 is the concentration needed to halve the response being measured.
